Data published in PubChem BioAssay (NCI).
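All cell lines were grown in 96-well plates and treated with compound for 48 hours. GI50 marks 50% less growth. The concentration for full growth arrest is given as TGI.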

Assays:
Test in all cases: DTP human tumour cell line panel, 48 h
K-562 leukemia = system: K-562 leukemia
HOP-92 NSCLC = system: HOP-92 NSCLC
NCI/ADR-RES ovarian = system: NCI/ADR-RES ovarian
786-0 renal = system: 786-0 renal
UACC-257 melanoma = system: UACC-257 melanoma
MDA-N = system: MDA-N
RXF 393 renal = system: RXF 393 renal
NCI-H460 lung = system: NCI-H460 lung
SN12C renal = system: SN12C renal
HCT-15 colon = system: HCT-15 colon
BT-549 breast = system: BT-549 breast

| SMILES | TGI (K-562 leukemia) [µM] | TGI (HOP-92 NSCLC) [µM] | TGI (NCI/ADR-RES ovarian) [µM] | TGI (786-0 renal) [µM] | TGI (UACC-257 melanoma) [µM] | TGI (MDA-N) [µM] | TGI (RXF 393 renal) [µM] | TGI (NCI-H460 lung) [µM] | TGI (SN12C renal) [µM] | TGI (HCT-15 colon) [µM] | TGI (BT-549 breast) [µM] | GI50 (BT-549 breast) [µM] | GI50 (K-562 leukemia) [µM] | GI50 (HOP-92 NSCLC) [µM] | GI50 (UACC-257 melanoma) [µM] | GI50 (NCI-H460 lung) [µM] | GI50 (SN12C renal) [µM] | GI50 (HCT-15 colon) [µM] |
| --- | --- | --- | --- | --- | --- | --- | --- | --- | --- | --- | --- | --- | --- | --- | --- | --- | --- | --- |
| O=c1[nH]nc(-c2ccccc2)n1O | > 100 | > 100 | > 100 | > 100 | > 100 | > 100 | > 100 | > 100 | > 100 | > 100 |  |  |  |  |  |  |  |  |
| Cn1c(=O)n2n(c1=O)C(C)(C13CC4CC(CC(C4)C1)C3)C13CC4CC(CC1C4)CC23 (stereo not given) | > 100 | > 100 | > 100 |  | > 100 | > 100 |  | > 100 | > 100 | > 100 | > 100 |  |  |  |  |  |  |  |
| COc1ccc(NC(=O)C(=O)/C=C(\O)c2ccccc2)cc1 | > 10 | > 10 |  | > 10 | > 10 | > 10 | > 10 |  | > 10 | > 10 |  |  |  |  |  |  |  |  |
| O=c1[nH]c(Nc2nc3ccccc3[nH]2)nc(O)c1Cc1ccccc1 | > 100 | 63 | > 100 | > 100 | > 100 | > 100 |  | > 100 | > 100 | > 100 | > 100 |  |  |  |  |  |  |  |
| O=c1[nH]c2nc3ccccc3c(=O)n2/c1=C/c1ccco1 | > 100 | > 100 | > 100 | > 100 | > 100 | > 100 |  |  | > 100 | > 100 | > 100 |  |  |  |  |  |  |  |
| C=C(C)[C@@H]1CC[C@]2(C(=O)OC)CC[C@]3(C)[C@H](CC[C@@H]4[C@@]5(C)CC[C@H](O)C(C)(C)[C@@H]5CC[C@]43C)[C@@H]12 | 47 | 41.3 | 51.7 | 45.9 | 38.3 | 42.7 | 38.9 | 38.4 | 35.1 | 50.6 |  |  |  |  |  |  |  |  |
| CCN(CCN(CC)C(=O)Nc1ccccc1)C(=O)Nc1ccccc1 | > 100 | > 100 | > 100 | > 100 | > 100 |  | > 100 | > 100 | > 100 | > 100 | > 100 |  |  |  |  |  |  |  |
| N#CCCC1(CCC#N)CCCCCCCCC(CCC#N)(CCC#N)C(O)C1O (stereo not given) | > 100 | > 100 | > 100 | > 100 | > 100 | > 100 | 86.9 | > 100 | > 100 | > 100 |  |  |  |  |  |  |  |  |
| COc1ccc(Nc2ccc([N+](=O)[O-])cc2[N+](=O)[O-])cc1CN(CCCl)CCCl | 18.9 | 5.47 |  |  | 34.2 |  |  | 6.16 | > 100 | 9.93 | 3.96 | 1.41 | 2.47 | 1.99 | 5.31 | 1.82 | 2.6 | 2.48 |
| CC1CC(C#N)=C2NCCN2C1=O (stereo not given) | > 100 |  | > 100 | > 100 | > 100 | 31.8 | > 100 | > 100 | > 100 | > 100 | > 100 |  |  |  |  |  |  |  |
